Tested on: T-47D spheroids with HUVEC/MSC, viability
Assay: Anticancer human tumor T-47D cell line growth inhibition [PI3K];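 also: spheroids exposed to agents for seven days before reading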;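 as to viability, T/C: percent of DMSO vehicle control luminescence so 100% = untreated growth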
Details: for viability, T/C: stronger effect = lower value
Summary of the method: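 Complex 3D spheroids (cancer cells + endothelial HUVEC + mesenchymal stem cells); drug pairs of targeted agent x inavolisib/alpelisib/duvelisib/copanlisib; half-log series from ~Cmax, max 10 microM if Cmax unknown; endpoint viability.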

[1] = curve of first compound, second compound 0.0316 µM
[2] = curve of first compound, second compound 0.1 µM
[3] = curve of first compound, second compound 0.316 µM
[4] = curve of first compound, second compound 1 µM
[5] = second compound 0.0316 µM, first compound 0.0316 µM
[6] = second compound 0.0316 µM, first compound 0.1 µM
[7] = second compound 0.0316 µM, first compound 0.316 µM
[8] = second compound 0.0316 µM, first compound 1 µM
[9] = second compound 0.0316 µM, first compound 3.16 µM
[10] = second compound 0.0316 µM, first compound 10 µM
[11] = second compound 0.1 µM, first compound 0.0316 µM
[12] = second compound 0.1 µM, first compound 0.1 µM
[13] = second compound 0.1 µM, first compound 0.316 µM
[14] = second compound 0.1 µM, first compound 1 µM
[15] = second compound 0.1 µM, first compound 3.16 µM
[16] = second compound 0.1 µM, first compound 10 µM
[17] = second compound 0.316 µM, first compound 0.0316 µM
[18] = second compound 0.316 µM, first compound 0.1 µM
[19] = second compound 0.316 µM, first compound 0.316 µM
[20] = second compound 0.316 µM, first compound 1 µM
[21] = second compound 0.316 µM, first compound 3.16 µM
[22] = second compound 0.316 µM, first compound 10 µM
[23] = second compound 1 µM, first compound 0.0316 µM
[24] = second compound 1 µM, first compound 0.1 µM
[25] = second compound 1 µM, first compound 0.316 µM
[26] = second compound 1 µM, first compound 1 µM
[27] = second compound 1 µM, first compound 3.16 µM
[28] = second compound 1 µM, first compound 10 µM

`Cn1nccc1Nc1nccc(-c2ccn(C(CO)c3ccc(Cl)c(F)c3)c(=O)c2)n1` (stereo not drawn) + CC(Nc1ccc2c(c1)OCCn1cc(N3C(=O)OCC3C(F)F)nc1-2)C(N)=O showed an IC50 (curve of first compound, second compound 0.00316 µM) greater than 10 µM, an IC50 (curve of first compound, second compound 0.01 µM) greater than 10 µM and an IC50 [1] greater than 10 µM. It also gave an IC50 [2] greater than 10 µM, an IC50 [3] greater than 10 µM and an IC50 [4] greater than 10 µM. It also gave a viability, T/C (second compound 0.00316 µM, first compound 0.0316 µM) of 98.6%, a viability, T/C (second compound 0.00316 µM, first compound 0.1 µM) of 97.4% and a viability, T/C (second compound 0.00316 µM, first compound 0.316 µM) of 93.3%. For the same compound, the viability, T/C (second compound 0.00316 µM, first compound 1 µM) was 96%, the viability, T/C (second compound 0.00316 µM, first compound 3.16 µM) was 113% and the viability, T/C (second compound 0.00316 µM, first compound 10 µM) was 109%. The viability, T/C (second compound 0.01 µM, first compound 0.0316 µM) was 106%, the viability, T/C (second compound 0.01 µM, first compound 0.1 µM) was 92.8% and the viability, T/C (second compound 0.01 µM, first compound 0.316 µM) was 104%. The viability, T/C (second compound 0.01 µM, first compound 1 µM) was 106%, the viability, T/C (second compound 0.01 µM, first compound 3.16 µM) was 111% and the viability, T/C (second compound 0.01 µM, first compound 10 µM) was 99.6%. It also gave a viability, T/C [5] of 86.1%, a viability, T/C [6] of 85.2% and a viability, T/C [7] of 93.2%. It also gave a viability, T/C [8] of 99.7%, a viability, T/C [9] of 105% and a viability, T/C [10] of 85.7%. For the same compound, the viability, T/C [11] was 103%, the viability, T/C [12] was 100% and the viability, T/C [13] was 89.4%. It also gave a viability, T/C [14] of 92.9%, a viability, T/C [15] of 87% and a viability, T/C [16] of 92.3%. It also gave a viability, T/C [17] of 71.8%, a viability, T/C [18] of 71.3% and a viability, T/C [19] of 65.4%. It also gave a viability, T/C [20] of 67%, a viability, T/C [21] of 69.4% and a viability, T/C [22] of 71.3%. It also gave a viability, T/C [23] of 65.7%, a viability, T/C [24] of 60% and a viability, T/C [25] of 52%. It also gave a viability, T/C [26] of 47.4%, a viability, T/C [27] of 58.1% and a viability, T/C [28] of 57.1%.
`C#Cc1c(F)ccc2cc(O)cc(-c3ncc4c(N5CC6CCC(C5)N6)nc(OCC56CCCN5CC(F)C6)nc4c3F)c12` (stereo not drawn) was tested, and the viability, T/C (compound 0.1 µM) was 99.3% [middle of 4 runs], the viability, T/C (compound 3.16 µM) was 98.4% [middle of 4 runs] and the viability, T/C (compound 10 µM) was 96.3% [middle of 4 runs]. For the same compound, the IC50 (curve of compound) was greater than 10 µM.
In the case of `CC1(C)CCC(CN2CCN(c3ccc(C(=O)NS(=O)(=O)c4ccc(NCC5CCOCC5)c([N+](=O)[O-])c4)c(Oc4cnc5[nH]ccc5c4)c3)CC2)=C(c2ccc(Cl)cc2)C1` + CC(Nc1ncnc2nc[nH]c12)c1cc2cccc(Cl)c2c(=O)n1-c1ccccc1, the IC50 [1] is reported as greater than 10 µM, the IC50 [2] is reported as greater than 10 µM and the IC50 [3] is reported as greater than 10 µM. It also gave an IC50 [4] greater than 10 µM, an IC50 (curve of first compound, second compound 3.16 µM) greater than 10 µM and an IC50 (curve of first compound, second compound 10 µM) greater than 10 µM. The viability, T/C [5] was 120%, the viability, T/C [6] was 75.2% and the viability, T/C [7] was 85.7%. The viability, T/C [8] was 80.9%, the viability, T/C [9] was 81% and the viability, T/C [10] was 79.5%. The viability, T/C [11] was 110%, the viability, T/C [12] was 96% and the viability, T/C [13] was 99.5%. The viability, T/C [14] was 83.7%, the viability, T/C [15] was 89.6% and the viability, T/C [16] was 83.6%. For the same compound, the viability, T/C [17] was 88.5%, the viability, T/C [18] was 101% and the viability, T/C [19] was 86%. It also gave a viability, T/C [20] of 89.7%, a viability, T/C [21] of 85.3% and a viability, T/C [22] of 81%. The viability, T/C [23] was 96.9%, the viability, T/C [24] was 93.4% and the viability, T/C [25] was 91%. The viability, T/C [26] was 80.3%, the viability, T/C [27] was 77.1% and the viability, T/C [28] was 79.2%. It also gave a viability, T/C (second compound 3.16 µM, first compound 0.0316 µM) of 91.6%, a viability, T/C (second compound 3.16 µM, first compound 0.1 µM) of 88.9% and a viability, T/C (second compound 3.16 µM, first compound 0.316 µM) of 97.3%. For the same compound, the viability, T/C (second compound 3.16 µM, first compound 1 µM) was 95.5%, the viability, T/C (second compound 3.16 µM, first compound 3.16 µM) was 87.3% and the viability, T/C (second compound 3.16 µM, first compound 10 µM) was 66.8%. It also gave a viability, T/C (second compound 10 µM, first compound 0.0316 µM) of 96.5%, a viability, T/C (second compound 10 µM, first compound 0.1 µM) of 94.4% and a viability, T/C (second compound 10 µM, first compound 0.316 µM) of 88.8%. For the same compound, the viability, T/C (second compound 10 µM, first compound 1 µM) was 89%, the viability, T/C (second compound 10 µM, first compound 3.16 µM) was 86.1% and the viability, T/C (second compound 10 µM, first compound 10 µM) was 79.8%.
